Source: patent publication US11696917B2, “Agent enhancing antitumor effect using pyrazolo[3,4-d]pyrimidine compound” (TAIHO PHARMACEUTICAL CO., LTD., priority 2017, dated 2023)

System: NCI-N87 (human stomach cancer)
Experiment: Combination of Compound 1 and other antitumor agents (in vitro), CellTiter-Glo, median effect method
Type: cell-based
Method: The supplier of each reagent, the suppliers of tumor cell lines, the media used, and the numbers of cells to be inoculated are shown in the tables below.
The cells were inoculated at 20 μL/well to a 384-well culture plate (Corning Inc.). The plate inoculated with the cells were cultured in an incubator set to 37° C. and 5% CO2. On the day following inoculation, each of mixed solutions of Compound 1 and each other antitumor agent at varying combinations of concentrations was added to the cells. Specifically, 8 serial dilutions (including (0 nM)) of Compound 1 and 10 serial dilutions (including (0 nM)) of the other antitumor agent were prepared using Leibovitz's L-15 medium containing 10% FBS, or ATCC formulated RPMI-1640 medium containing 10% FBS. Drug solutions in which equal amounts of the respective serial dilutions of the compounds were dispensed were mixed at a ratio of 1:1 to prepare a total of 80 mixed drug solutions including every combination. Each of these mixed drug solutions was added at 5 μL/well (N=4) to the plate, followed by further culture for 3 days under conditions of 37° C. and 5% CO2.
Three days later, CellTiter-Glo™ 2.0 Reagent (Promega Corporation) was added thereto at 25 μL/well, and chemiluminescence was measured using a plate reader (EnSpire® Multimode Plate Reader, PerkinElmer Japan Co., Ltd.).
The enhancement of an effect by combined use of the drugs was evaluated according to a method known in the art (a method described in Trends Pharmacol. Sci., 4, 450-454, 1983 or Pharmacol Rev., 58 (3), 621-81, 2006).
An average value from 4 wells of each combination was calculated from the obtained data, and a cell survival rate normalized against a control supplemented with a medium containing a vehicle was calculated. A Fa (fraction of affect) value was calculated by subtracting the cell survival rate from 1. Median effect analysis software CalcuSyn 2.0 (CalcuSyn, Inc.) for calculation by the median effect method was used in the calculation of CI.
As for the combinations of the concentrations of both the drugs for calculating CI, a Fa value closer to 1 presumably means a concentration range in which one of the drugs had too strong an effect, and a Fa value closer to 0 presumably means a concentration range in which any of the drugs had too weak an effect. Since these concentration ranges were not appropriate for the discussion of a synergistic effect, combinations that satisfied 0.2 S Fa 0.8 were extracted from the combinations of the respective concentrations of Compound 1 and the other antitumor agent on the basis of the calculated Fa value.
An effect of combined use was determined as shown in the table below (Pharmacol Rev., 58 (3), p. 621-81, 2006).

[1] = Compound 1 3.70 nM + FdUrd 333333 nM, ratio 1:90000, NCI-N87
[2] = Compound 1 3.70 nM + Gemcitabine 1.37 nM, ratio 1:0.37, NCI-N87
[3] = Compound 1 3.70 nM + Gemcitabine 4.12 nM, ratio 1:1.1, NCI-N87
[4] = Compound 1 3.70 nM + Gemcitabine 12.3 nM, ratio 1:3.3, NCI-N87
[5] = Compound 1 3.70 nM + Gemcitabine 37.0 nM, ratio 1:10, NCI-N87
[6] = Compound 1 3.70 nM + Gemcitabine 111 nM, ratio 1:30, NCI-N87
[7] = Compound 1 3.70 nM + Gemcitabine 333 nM, ratio 1:90, NCI-N87
[8] = Compound 1 3.70 nM + Paclitaxel 1.85 nM, ratio 1:0.50, NCI-N87
[9] = Compound 1 3.70 nM + Paclitaxel 5.56 nM, ratio 1:1.5, NCI-N87
[10] = Compound 1 3.70 nM + Paclitaxel 16.7 nM, ratio 1:4.5, NCI-N87
[11] = Compound 1 3.70 nM + Trifluridine 12346 nM, ratio 1:3333, NCI-N87
[12] = Compound 1 3.70 nM + Trifluridine 37037 nM, ratio 1:10000, NCI-N87
[13] = Compound 1 3.70 nM + Trifluridine 111111 nM, ratio 1:30000, NCI-N87
[14] = Compound 1 11.1 nM + Cisplatin 687 nM, ratio 1:62, NCI-N87
[15] = Compound 1 11.1 nM + Cisplatin 2062 nM, ratio 1:186, NCI-N87
[16] = Compound 1 11.1 nM + Cisplatin 6185 nM, ratio 1:557, NCI-N87
[17] = Compound 1 11.1 nM + Cisplatin 18556 nM, ratio 1:1670, NCI-N87
[18] = Compound 1 11.1 nM + Cisplatin 55667 nM, ratio 1:5010, NCI-N87
[19] = Compound 1 11.1 nM + FdUrd 4115 nM, ratio 1:370, NCI-N87
[20] = Compound 1 11.1 nM + FdUrd 12346 nM, ratio 1:1111, NCI-N87
[21] = Compound 1 11.1 nM + FdUrd 37037 nM, ratio 1:3333, NCI-N87
[22] = Compound 1 11.1 nM + FdUrd 111111 nM, ratio 1:10000, NCI-N87
[23] = Compound 1 11.1 nM + FdUrd 333333 nM, ratio 1:30000, NCI-N87
[24] = Compound 1 11.1 nM + FdUrd 1000000 nM, ratio 1:90000, NCI-N87
[25] = Compound 1 11.1 nM + Paclitaxel 0.206 nM, ratio 1:0.019, NCI-N87
[26] = Compound 1 11.1 nM + Paclitaxel 0.617 nM, ratio 1:0.056, NCI-N87
[27] = Compound 1 11.1 nM + Paclitaxel 1.85 nM, ratio 1:0.17, NCI-N87
[28] = Compound 1 11.1 nM + Paclitaxel 5.56 nM, ratio 1:0.50, NCI-N87
[29] = Compound 1 11.1 nM + Trifluridine 4115 nM, ratio 1:370, NCI-N87
[30] = Compound 1 11.1 nM + Trifluridine 12346 nM, ratio 1:1111, NCI-N87
[31] = Compound 1 11.1 nM + Trifluridine 37037 nM, ratio 1:3333, NCI-N87
[32] = Compound 1 11.1 nM + Trifluridine 111111 nM, ratio 1:10000, NCI-N87
[33] = Compound 1 33.3 nM + Cisplatin 2062 nM, ratio I:62, NCI-N87
[34] = Compound 1 33.3 nM + FdUrd 12346 nM, ratio 1:370, NCI-N87
[35] = Compound 1 […] + Gemcitabine 4.12 nM, ratio 1:10, NCI-N87
[36] = Compound 1 […] + Gemcitabine 12.3 nM, ratio 1:30, NCI-N87
[37] = Compound 1 […] + Gemcitabine 37.0 nM, ratio 1:90, NCI-N87

Question: `C=CC(=O)N1CCC[C@@H](n2nc(C(=O)Nc3ccc(CC(=O)N(C)C)c(C)c3C)c3c(N)ncnc32)C1` [Compound 1, (R)-1-(1-acryloylpiperidin-3-yl)-4-amino-N-(4-(2-(dimethylamino)-2-oxoethyl)-2,3-dimethylphenyl)-1H-pyrazolo[3,4-d]pyrimidine-3-carboxamide] was tested. Which CI [1] did it give?
Answer: 0.47

Question: What about the Fa [1] of the same molecule?
Answer: 0.62

Question: What about the CI [2] of the same molecule?
Answer: 0.15

Question: And the Fa [2]?
Answer: 0.75

Question: What about the CI [3] of the same molecule?
Answer: 0.12

Question: What about the Fa [3] of the same molecule?
Answer: 0.77

Question: What about the CI [4] of the same molecule?
Answer: 0.10

Question: What about the Fa [4] of the same molecule?
Answer: 0.80

Question: And the CI [5]?
Answer: 0.11

Question: What about the Fa [5] of the same molecule?
Answer: 0.78

Question: What about the CI [6] of the same molecule?
Answer: 0.11

Question: What about the Fa [6] of the same molecule?
Answer: 0.78

Question: And the CI [7]?
Answer: 0.12

Question: What about the Fa [7] of the same molecule?
Answer: 0.77

Question: What about the CI [8] of the same molecule?
Answer: 0.84

Question: What about the Fa [8] of the same molecule?
Answer: 0.41

Question: What about the CI [9] of the same molecule?
Answer: 0.42

Question: What about the Fa [9] of the same molecule?
Answer: 0.64

Question: What about the CI [10] of the same molecule?
Answer: 0.55

Question: And the Fa [10]?
Answer: 0.71

Question: And the CI [11]?
Answer: 0.51

Question: And the Fa [11]?
Answer: 0.57

Question: And the CI [12]?
Answer: 0.51

Question: What about the Fa [12] of the same molecule?
Answer: 0.61

Question: What about the CI [13] of the same molecule?
Answer: 0.51

Question: What about the Fa [13] of the same molecule?
Answer: 0.67

Question: What about the CI [14] of the same molecule?
Answer: 0.87

Question: What about the Fa [14] of the same molecule?
Answer: 0.59

Question: What about the CI [15] of the same molecule?
Answer: 0.71

Question: And the Fa [15]?
Answer: 0.64

Question: And the CI [16]?
Answer: 0.48

Question: And the Fa [16]?
Answer: 0.74

Question: And the CI [17]?
Answer: 0.50

Question: What about the Fa [17] of the same molecule?
Answer: 0.77

Question: What about the CI [18] of the same molecule?
Answer: 0.90

Question: What about the Fa [18] of the same molecule?
Answer: 0.79

Question: What about the CI [19] of the same molecule?
Answer: 0.79

Question: And the Fa [19]?
Answer: 0.61

Question: What about the CI [20] of the same molecule?
Answer: 0.55

Question: And the Fa [20]?
Answer: 0.68

Question: What about the CI [21] of the same molecule?
Answer: 0.58

Question: And the Fa [21]?
Answer: 0.67

Question: And the CI [22]?
Answer: 0.46

Question: And the Fa [22]?
Answer: 0.73

Question: And the CI [23]?
Answer: 0.52

Question: What about the Fa [23] of the same molecule?
Answer: 0.75

Question: What about the CI [24] of the same molecule?
Answer: 0.31

Question: What about the Fa [24] of the same molecule?
Answer: 0.79

Question: And the CI [25]?
Answer: 0.58

Question: And the Fa [25]?
Answer: 0.69

Question: And the CI [26]?
Answer: 0.52

Question: What about the Fa [26] of the same molecule?
Answer: 0.71

Question: What about the CI [27] of the same molecule?
Answer: 0.61

Question: What about the Fa [27] of the same molecule?
Answer: 0.69

Question: And the CI [28]?
Answer: 0.44

Question: What about the Fa [28] of the same molecule?
Answer: 0.78

Question: What about the CI [29] of the same molecule?
Answer: 0.79

Question: And the Fa [29]?
Answer: 0.69

Question: What about the CI [30] of the same molecule?
Answer: 0.51

Question: What about the Fa [30] of the same molecule?
Answer: 0.77

Question: What about the CI [31] of the same molecule?
Answer: 0.63

Question: And the Fa [31]?
Answer: 0.74

Question: What about the CI [32] of the same molecule?
Answer: 0.49

Question: And the Fa [32]?
Answer: 0.80

Question: And the CI [33]?
Answer: 0.73

Question: What about the Fa [33] of the same molecule?
Answer: 0.80

Question: What about the CI [34] of the same molecule?
Answer: 0.76

Question: What about the Fa [34] of the same molecule?
Answer: 0.80

Question: What about the CI [35] of the same molecule?
Answer: 0.21

Question: And the Fa [35]?
Answer: 0.68

Question: And the CI [36]?
Answer: 0.23

Question: And the Fa [36]?
Answer: 0.69

Question: And the CI [37]?
Answer: 0.02

Question: What about the Fa [37] of the same molecule?
Answer: 0.71
